Data: US20230250095A1, “BENZIMIDAZOLE DERIVATIVES, PREPARATION METHOD THEREFOR AND MEDICAL USE THEREOF” (TUOJIE BIOTECH(SHANGHAI) CO., LTD., priority 2020, published 2023)
Like-named read-outs stand apart in the source and are kept apart here.

How the values were obtained:
[1] = biological target: T1, CYP2D6 (Homo sapiens, UniProt P10635); assay: CYP inhibition assay in pooled human liver microsomes (bufuralol hydrochloride); format: in vitro ADME; settings: human liver microsomes 0.2 mg/mL, substrate bufuralol hydrochloride; read-out: CYP 2D6 (μM) IC50
T1 construct: 150-donor pooled human liver microsomes (purchased from Corning, Cat. No. 452117); tissue Corning 452117; host or cells: 150-donor pooled human liver microsomes
Protocol: (§1) The metabolic reactions of representative substrates of 5 major human CYP subtypes (CYP1A2, CYP2C9, CYP2C19, CYP2D6, CYP3A4/5) were evaluated using 150-donor pooled human liver microsomes (purchased from Corning, Cat. No. 452117). The effects of different concentrations of the test compounds on the metabolic reactions of phenacetin (CYP1A2), diclofenac sodium (CYP2C9), S-mephenytoin (CYP2C19), bufuralol hydrochloride (CYP2D6) and midazolam (CYP3A4/5) were determined by liquid chromatography-tandem mass spectrometry (LC/MS/MS).
(§2) 30 μM phenacetin, 10 μM diclofenac sodium, 35 μM S-mephenytoin, 5 μM bufuralol hydrochloride, 3 μM midazolam, 1 mM NADPH, and test compounds (at concentrations of 0.1 μmol/L, 0.3 μmol/L, 1 μmol/L, 3 μmol/L, 10 μmol/L, and 30 μmol/L, respectively) or positive compound or blank were incubated with 200 μL of a reaction system of pooled human liver microsomes (0.2 mg/mL) (100 mmol/L phosphate buffer, pH 7.4, containing 0.3% by volume of DMSO, 0.6% by volume of acetonitrile, and 0.1% by volume of methanol) at 37° C. for 5 min. Then, 200 μL of acetonitrile containing 3% formic acid and 40 nM internal standard verapamil was added, and the mixture was centrifuged at 4000 rpm for 50 min. The mixture was cooled on ice for 20 min and centrifuged at 4000 rpm for 20 min to precipitate the protein. 200 μL of the supernatant was analyzed by LC/MS/MS.
(§3) The peak area was calculated from the chromatogram. The residual activity rate (%) was calculated by the following formula:
(§4) peak area rate=peak area of metabolite/peak area of internal standard
(§5) residual activity rate (%)=peak area proportion of the test compound group/peak area proportion of the blank group
(§6) The half maximal inhibitory concentrations (IC50) against CYP were calculated by Excel XLfit 5.3.1.3.

[2] = biological target: T2, CYP1A2 (Homo sapiens, UniProt P05177); assay: CYP inhibition assay in pooled human liver microsomes (phenacetin); format: in vitro ADME; settings: human liver microsomes 0.2 mg/mL, substrate phenacetin; read-out: CYP 1A2 (μM) IC50
T2 construct: 150-donor pooled human liver microsomes (purchased from Corning, Cat. No. 452117); tissue Corning 452117; host or cells: 150-donor pooled human liver microsomes
T2 sequence (P05177 1-516): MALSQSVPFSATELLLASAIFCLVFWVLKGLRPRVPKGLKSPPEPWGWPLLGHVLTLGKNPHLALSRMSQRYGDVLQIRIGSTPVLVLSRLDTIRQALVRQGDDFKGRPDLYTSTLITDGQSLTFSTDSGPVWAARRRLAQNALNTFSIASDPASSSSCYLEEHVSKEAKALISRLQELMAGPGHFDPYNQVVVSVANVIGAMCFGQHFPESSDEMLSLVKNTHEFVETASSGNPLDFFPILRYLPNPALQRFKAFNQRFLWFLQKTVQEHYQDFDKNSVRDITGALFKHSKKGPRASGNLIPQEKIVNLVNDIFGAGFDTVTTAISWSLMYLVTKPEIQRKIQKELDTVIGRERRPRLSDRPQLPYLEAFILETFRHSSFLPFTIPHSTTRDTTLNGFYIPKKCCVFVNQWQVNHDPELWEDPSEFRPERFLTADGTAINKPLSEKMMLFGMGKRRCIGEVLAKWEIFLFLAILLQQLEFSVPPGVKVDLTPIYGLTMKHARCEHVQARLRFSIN
Protocol: as §1, §2, §3, §4, §5, §6

[3] = biological target: T3, hP2X3 (Homo sapiens, UniProt P56373); assay: FLIPR calcium flux assay, antagonistic activity against hP2X3 receptor; format: cell-based; settings: 1321N1/hP2X3 cells, agonist α,β-meATP 500 nM
T3 construct: host or cells: 1321N1 cells
T3 sequence (P56373 1-397): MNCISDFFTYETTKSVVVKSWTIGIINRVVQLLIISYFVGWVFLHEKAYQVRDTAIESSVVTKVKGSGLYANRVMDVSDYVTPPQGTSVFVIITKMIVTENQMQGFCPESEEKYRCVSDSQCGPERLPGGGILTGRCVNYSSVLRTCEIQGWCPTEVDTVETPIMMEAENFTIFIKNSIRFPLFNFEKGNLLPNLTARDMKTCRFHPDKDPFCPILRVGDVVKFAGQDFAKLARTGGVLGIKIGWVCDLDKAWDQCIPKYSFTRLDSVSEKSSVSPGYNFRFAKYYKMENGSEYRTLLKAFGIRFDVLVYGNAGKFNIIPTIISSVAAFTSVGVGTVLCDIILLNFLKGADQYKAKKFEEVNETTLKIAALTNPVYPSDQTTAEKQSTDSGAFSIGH
Protocol: The compounds were screened for antagonistic activity against hP2X3 and hP2X2/3 receptors (changes in calcium flux signals represent the effect of the compounds on ion channels) by an FLIPR assay.
1321N1 cells (adherent cells) stably transfected with hP2X3 and hP2X2/3 receptors were digested, centrifuged, resuspended in a plating medium (DMEM+10% DFBS) and counted, adjusted to 2×10^5 cells/mL. The cells were seeded in a 384-well assay plate at 50 μL/well, and incubated in an incubator at 37° C. with 5% CO2 for 16-24 h. Test compounds (20 mM DMSO stock solution) that were 180 times the desired concentration were prepared with DMSO, and added to a 384-well compound plate at 500 nL/well. Then, each well was supplemented with 30 μL of FLIPR buffer (lx HBSS containing 1.26 mM Ca^2++2 mM CaCl2)+20 mM HEPES), and the mixture was shaken for 20-40 min to be mixed well. The agonist α,β-meATP (final concentration of 500 nM for hP2X3 cells and final concentration of 1000 nM for hP2X2/3 cells) that was 3 times the desired concentration was prepared with an FLIPR buffer, and added to another 384-well compound plate at 35 μL/well. The cell plate in which cells had been plated and cultured for 16-24 h was taken out, and the cell supernatant was removed by pipetting. 30 μL of dye (FLIPR® calcium 4 assay kit, diluted with an FLIPR buffer) was added to each well, and the plate was incubated for 1 h. 15 μL of the compound was added to each well containing cells (dosing using an FLIPR instrument), and after 15 min, 22.5 μL of agonist was added to each well and the fluorescent signal was detected (excitation wavelength: 470-495 nm, emission wavelength: 515-575 nm). With the difference between the peak and the trough of the signal taken as the basic data, the data of the highest concentration of the positive drug taken as the 100% inhibition rate, and the data of DMSO taken as the 0% inhibition rate, the inhibition effect curves of the compounds were fitted on the software Graphpad Prism 6 and IC50 values were calculated.

[4] = biological target: T4, CYP2C19 (Homo sapiens, UniProt P33261); assay: CYP inhibition assay in pooled human liver microsomes (S-mephenytoin); format: in vitro ADME
T4 construct: 150-donor pooled human liver microsomes (purchased from Corning, Cat. No. 452117); tissue Corning 452117; host or cells: 150-donor pooled human liver microsomes
Protocol: as §1, §2, §3, §4, §5, §6

[5] = human liver microsomes 0.2 mg/mL, substrate S-mephenytoin, read-out: CYP 2C19 (μM) IC50

T4 sequence (P33261 whole entry): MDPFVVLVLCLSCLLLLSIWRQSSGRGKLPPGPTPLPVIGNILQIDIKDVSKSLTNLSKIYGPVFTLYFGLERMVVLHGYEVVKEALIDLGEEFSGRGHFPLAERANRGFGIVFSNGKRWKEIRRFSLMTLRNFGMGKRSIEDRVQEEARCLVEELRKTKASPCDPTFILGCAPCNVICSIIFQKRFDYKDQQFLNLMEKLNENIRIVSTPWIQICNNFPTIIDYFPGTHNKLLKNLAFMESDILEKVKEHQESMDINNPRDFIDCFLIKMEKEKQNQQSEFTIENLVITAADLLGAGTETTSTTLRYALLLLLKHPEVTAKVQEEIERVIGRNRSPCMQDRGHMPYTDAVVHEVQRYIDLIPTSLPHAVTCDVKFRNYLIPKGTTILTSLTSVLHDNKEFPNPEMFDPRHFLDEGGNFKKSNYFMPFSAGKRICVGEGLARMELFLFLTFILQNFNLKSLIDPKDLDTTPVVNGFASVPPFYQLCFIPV
T1 sequence (P10635 whole entry): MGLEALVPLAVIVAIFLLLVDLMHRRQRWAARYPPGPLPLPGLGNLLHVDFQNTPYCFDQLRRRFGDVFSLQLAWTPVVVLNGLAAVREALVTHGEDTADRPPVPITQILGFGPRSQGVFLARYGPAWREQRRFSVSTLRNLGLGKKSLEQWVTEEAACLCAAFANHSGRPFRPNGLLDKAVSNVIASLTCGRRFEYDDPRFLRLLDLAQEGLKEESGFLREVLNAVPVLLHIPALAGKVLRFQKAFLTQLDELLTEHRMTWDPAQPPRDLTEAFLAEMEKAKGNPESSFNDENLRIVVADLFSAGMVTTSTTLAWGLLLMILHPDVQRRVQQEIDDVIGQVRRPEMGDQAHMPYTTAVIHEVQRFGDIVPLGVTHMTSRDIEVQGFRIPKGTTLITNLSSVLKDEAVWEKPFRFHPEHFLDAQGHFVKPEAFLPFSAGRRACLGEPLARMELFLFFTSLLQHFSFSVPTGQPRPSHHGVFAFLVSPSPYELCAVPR

Compound | IC50 [1] | IC50 [2] | IC50 [3] | IC50 [4, 5] | IC50 [4]
COC(=O)N1CCOC(Cn2c(-c3c(F)cc(N4CCCC4=O)cc3F)nc3cc(C)ccc32)C1 (stereo not shown) [Compound 2, Methyl 2-((2-(2,6-difluoro-4-(2-carbonylpyrrolidin-1-yl)phenyl)-5-methyl-1H-benzo[d]imidazol-1-yl)methyl)morpholine-4-carboxylate] | > 30 µM | > 30 µM | 105 nM | 14.6 µM | 
CC(=O)N1CCO[C@@H](Cn2c(-c3ccc(N4CCCC4=O)cc3Cl)nc3cc(C)ccc32)C1 [Compound 3, (S)-1-(4-(1-((4-acetylmorpholin-2-yl)methyl)-5-methyl-1H-benzo[d]imidazol-2-yl)-3-chlorophenyl)pyrrolidin-2-one] | > 30 µM | > 30 µM | 41.2 nM | > 30 µM | 
CC(=O)N1CCO[C@@H](Cn2c(-c3c(F)cc(N4CCCC4=O)cc3Cl)nc3cc(C)ccc32)C1 [Compound 4, (S)-1-(4-(1-((4-acetylmorpholin-2-yl)methyl)-5-methyl-1H-benzo[d]imidazol-2-yl)-3-chloro-5-fluorophenyl)pyrrolidin-2-one] | > 30 µM | > 30 µM | 31.6 nM | > 30 µM | 
COC(=O)N1CCO[C@@H](Cc2c(-c3c(F)cc(N4CCCC4=O)cc3F)nc3cc(C)ccn23)C1 [Compound 9, Methyl (S)-2-((2-(2,6-difluoro-4-(2-carbonylpyrrolidin-1-yl)phenyl)-7-methylimidazo[1,2-a]pyridin-3-yl)methyl)morpholine-4-carboxylate] | > 30 µM | > 30 µM | 75.8 nM |  | 12.9 µM

Second part, led by results:

IC50 [1] | IC50 [2] | IC50 [3] | IC50 [4, 5] | Compound | IC50 [4]
> 30 µM | > 30 µM | 36.8 nM | 13 µM | CC(=O)N1CCOC(Cn2c(-c3c(F)cc(N4CCCC4=O)cc3F)nc3cc(C)ccc32)C1 (stereo in doubt) [Compound 1] | 
> 30 µM | > 30 µM | 54.1 nM | > 30 µM | CC(=O)N1CCO[C@@H](Cn2c(-c3c(F)cc(N4CCCC4=O)cc3F)nc3cc(Cl)ccc32)C1 [Compound 10, (S)-1-(4-(1-((4-acetylmorpholin-2-yl)methyl)-5-chloro-1H-benzo[d]imidazol-2-yl)-3,5-difluorophenyl)pyrrolidin-2-one] | 
> 30 µM | > 30 µM | 33 nM | > 30 µM | [2H]C([2H])([2H])c1ccc2c(c1)nc(-c1c(F)cc(N3CCCC3=O)cc1F)n2C[C@H]1CN(C(C)=O)CCO1 [Compound 14, (S)-1-(4-(1-((4-acetylmorpholin-2-yl)methyl)-5-(methyl-d3)-1H-benzo[d]imidazol-2-yl)-3,5-difluorophenyl)pyrrolidin-2-one] | 
